# Data reported in ChEMBL document CHEMBL5257053, “Discovery of Orally Bioavailable FGFR2/FGFR3 Dual Inhibitors via Structure-Guided Scaffold Repurposing Approach” (ACS Med Chem Lett, 2023).
# pIC50: −log10 of the molar value.
# How the values were obtained:
# Cytochrome P450 2D6 = Cytochrome P450 2D6 (Homo sapiens, UniProt P10635); assay: Inhibition of CYP2D6 (unknown origin); type: ADME
# [1] = target: T1, Fibroblast growth factor receptor 2 (Homo sapiens, UniProt P21802); assay: Inhibition of recombinant human FGFR2 (400 to 821 residues) using biotin-EQEDEPEGDYFEWLE-amide as substrate preincubated for 5 to 10 mins followed by substrate addition and measured after 1 hr in presence of ATP by HTRF assay
# T1 sequence (P21802 whole entry, the tested form may be a part): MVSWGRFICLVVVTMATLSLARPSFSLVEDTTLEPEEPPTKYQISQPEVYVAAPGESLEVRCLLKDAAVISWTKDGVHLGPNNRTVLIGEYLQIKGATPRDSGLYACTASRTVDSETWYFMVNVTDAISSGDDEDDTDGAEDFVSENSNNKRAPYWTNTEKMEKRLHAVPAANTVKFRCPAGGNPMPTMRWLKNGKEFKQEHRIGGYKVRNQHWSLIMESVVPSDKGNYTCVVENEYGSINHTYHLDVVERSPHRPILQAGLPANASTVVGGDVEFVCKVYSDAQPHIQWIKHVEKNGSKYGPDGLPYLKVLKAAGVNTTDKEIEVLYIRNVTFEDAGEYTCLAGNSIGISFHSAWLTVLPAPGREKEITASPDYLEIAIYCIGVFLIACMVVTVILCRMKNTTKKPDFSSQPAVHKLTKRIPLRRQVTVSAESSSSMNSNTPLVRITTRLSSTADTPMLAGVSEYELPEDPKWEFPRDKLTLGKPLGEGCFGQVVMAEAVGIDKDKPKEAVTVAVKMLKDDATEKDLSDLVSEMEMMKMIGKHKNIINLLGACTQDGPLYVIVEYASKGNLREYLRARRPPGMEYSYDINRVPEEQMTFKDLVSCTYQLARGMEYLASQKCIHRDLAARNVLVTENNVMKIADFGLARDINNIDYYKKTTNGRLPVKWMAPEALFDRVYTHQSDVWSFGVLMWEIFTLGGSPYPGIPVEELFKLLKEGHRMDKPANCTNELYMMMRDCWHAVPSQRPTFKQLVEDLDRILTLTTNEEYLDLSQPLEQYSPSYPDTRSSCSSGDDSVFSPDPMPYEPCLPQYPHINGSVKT
# [2] = target: Fibroblast growth factor receptor 4 (Homo sapiens, UniProt P22455); assay: Inhibition of recombinant human FGFR4 (460 to 802 residues) using biotin-EQEDEPEGDYFEWLE-amide as substrate preincubated for 5 to 10 mins followed by substrate addition and measured after 1 hr in presence of ATP by HTRF assay
# [3] = Oral bioavailability in cynomolgus monkey at 3 mg/kg measured up to 24 hrs; type: ADME, organism-based, Macaca fascicularis; conditions: in vivo
# [4] = Half life in Sprague-Dawley rat at 3 mg/kg, po or 1 mg/kg, iv measured up to 24 hrs; type: ADME, organism-based; conditions: in vivo
# hERG (KCNH2) = hERG (KCNH2) (Homo sapiens, UniProt Q12809); assay: Inhibition of human ERG at 10 uM relative to control; type: toxicity
# Cytochrome P450 1A2 = target: T2, Cytochrome P450 1A2 (Homo sapiens, UniProt P05177); assay: Inhibition of CYP1A2 (unknown origin); type: ADME
# T2 sequence (P05177 whole entry): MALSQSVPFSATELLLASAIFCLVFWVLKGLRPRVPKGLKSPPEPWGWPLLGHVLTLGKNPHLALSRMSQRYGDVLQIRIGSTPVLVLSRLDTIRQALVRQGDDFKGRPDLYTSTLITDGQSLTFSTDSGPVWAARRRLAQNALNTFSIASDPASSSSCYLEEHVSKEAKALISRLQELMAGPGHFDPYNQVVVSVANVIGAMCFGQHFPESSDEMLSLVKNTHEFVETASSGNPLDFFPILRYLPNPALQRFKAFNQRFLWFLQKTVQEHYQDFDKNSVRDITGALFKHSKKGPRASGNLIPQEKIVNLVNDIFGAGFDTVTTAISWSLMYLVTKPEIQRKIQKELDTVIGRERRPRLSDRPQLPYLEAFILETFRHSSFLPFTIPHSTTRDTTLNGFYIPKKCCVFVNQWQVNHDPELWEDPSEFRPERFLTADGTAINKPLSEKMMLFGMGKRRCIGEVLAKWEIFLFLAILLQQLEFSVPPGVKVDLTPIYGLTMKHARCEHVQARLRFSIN
# [5] = target: Vascular endothelial growth factor receptor 2 (Homo sapiens, UniProt P35968); assay: Inhibition of KDR (unknown origin) using peptide substrate incubated for 90 mins in presence of ATP by HTRF method
# Chain of Vascular endothelial growth factor receptor 2 (P35968 whole entry): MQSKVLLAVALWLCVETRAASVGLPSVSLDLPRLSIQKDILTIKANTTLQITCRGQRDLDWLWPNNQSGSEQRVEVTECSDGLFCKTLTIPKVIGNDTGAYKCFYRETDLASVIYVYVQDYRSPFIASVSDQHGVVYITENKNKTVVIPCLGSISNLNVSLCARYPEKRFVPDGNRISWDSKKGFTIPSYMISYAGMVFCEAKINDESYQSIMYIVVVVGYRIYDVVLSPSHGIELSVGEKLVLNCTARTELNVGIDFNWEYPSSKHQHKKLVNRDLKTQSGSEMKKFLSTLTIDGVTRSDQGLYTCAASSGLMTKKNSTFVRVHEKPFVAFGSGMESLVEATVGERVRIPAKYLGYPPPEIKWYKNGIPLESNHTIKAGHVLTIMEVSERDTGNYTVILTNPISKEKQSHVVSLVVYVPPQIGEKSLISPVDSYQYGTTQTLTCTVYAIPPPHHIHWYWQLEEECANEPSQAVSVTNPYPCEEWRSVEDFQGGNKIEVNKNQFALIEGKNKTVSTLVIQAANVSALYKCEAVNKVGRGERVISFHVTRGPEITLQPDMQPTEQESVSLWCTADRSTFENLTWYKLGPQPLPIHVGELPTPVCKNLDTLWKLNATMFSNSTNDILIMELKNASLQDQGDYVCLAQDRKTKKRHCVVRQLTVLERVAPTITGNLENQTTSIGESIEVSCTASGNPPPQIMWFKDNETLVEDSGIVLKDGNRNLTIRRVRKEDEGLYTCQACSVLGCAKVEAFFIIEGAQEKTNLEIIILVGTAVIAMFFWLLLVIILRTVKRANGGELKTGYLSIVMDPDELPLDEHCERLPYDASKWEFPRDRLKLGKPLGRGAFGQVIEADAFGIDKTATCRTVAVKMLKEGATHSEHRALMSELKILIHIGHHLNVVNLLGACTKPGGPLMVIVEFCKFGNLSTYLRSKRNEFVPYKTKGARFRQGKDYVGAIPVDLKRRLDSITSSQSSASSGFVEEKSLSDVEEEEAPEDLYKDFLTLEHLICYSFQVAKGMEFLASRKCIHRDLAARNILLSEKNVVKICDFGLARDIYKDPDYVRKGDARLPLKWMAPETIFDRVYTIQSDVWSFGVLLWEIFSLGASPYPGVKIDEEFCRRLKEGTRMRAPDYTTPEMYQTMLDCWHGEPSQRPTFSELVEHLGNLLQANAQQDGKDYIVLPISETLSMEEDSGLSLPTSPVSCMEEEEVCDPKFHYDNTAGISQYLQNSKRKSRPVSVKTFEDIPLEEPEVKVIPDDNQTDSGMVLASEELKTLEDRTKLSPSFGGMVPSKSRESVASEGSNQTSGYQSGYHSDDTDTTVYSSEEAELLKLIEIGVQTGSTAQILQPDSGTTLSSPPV
# Activin receptor type-1 = target: T3, Activin receptor type-1 (Homo sapiens, UniProt Q04771); assay: Inhibition of recombinant human ALK2 (147 to end residues) expressed in Sf9 infected baculovirus expression system using TRF0130 as substrate incubated for 3 hrs in presence of […]
# T3 sequence (Q04771 whole entry): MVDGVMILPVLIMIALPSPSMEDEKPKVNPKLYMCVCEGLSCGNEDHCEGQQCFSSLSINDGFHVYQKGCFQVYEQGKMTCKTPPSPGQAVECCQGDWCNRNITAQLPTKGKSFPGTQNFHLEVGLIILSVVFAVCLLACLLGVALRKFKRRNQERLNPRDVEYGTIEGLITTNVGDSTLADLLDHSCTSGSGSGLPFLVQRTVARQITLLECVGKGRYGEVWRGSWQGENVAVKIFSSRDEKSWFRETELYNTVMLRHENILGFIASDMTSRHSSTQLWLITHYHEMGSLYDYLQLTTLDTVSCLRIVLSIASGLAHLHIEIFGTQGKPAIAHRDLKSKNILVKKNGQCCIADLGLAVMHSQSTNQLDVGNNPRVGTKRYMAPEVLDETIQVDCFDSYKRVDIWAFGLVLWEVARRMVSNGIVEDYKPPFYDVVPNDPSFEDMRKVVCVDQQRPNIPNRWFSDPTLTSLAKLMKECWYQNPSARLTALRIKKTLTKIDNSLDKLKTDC
# [6] = Cmax in cynomolgus monkey at 3 mg/kg, po measured up to 24 hrs; type: ADME, organism-based, Macaca fascicularis; parameters: time < 24 hrs, dose 3 mg/kg, route po; conditions: in vivo
# [7] = Volume of distribution at steady state in Sprague-Dawley rat at 3 mg/kg, po or 1 mg/kg, iv measured up to 24 hrs; type: ADME, organism-based; conditions: in vivo
# [8] = Volume of distribution at steady state in cynomolgus monkey at 3 mg/kg, po or 1 mg/kg, iv measured up to 24 hrs; type: ADME, organism-based, Macaca fascicularis; conditions: in vivo
# [9] = Metabolic stability in human liver microsomes assessed as intrinsic clearance at 1 uM preincubated for 2 mins followed by NADPH addition and measured upto 30 mins by LC-MS/MS analysis; type: ADME, Microsome; conditions: time < 32 min, read-out: CLH (converted)
# [10] = Protein binding in human plasma assessed as free fraction after 2 hrs by equilibrium dialysis method; type: ADME, cell-free
# [11] = AUCinfinity in cynomolgus monkey at 3 mg/kg, po measured up to 24 hrs; type: ADME, organism-based, Macaca fascicularis; parameters: time < 24 hrs, dose 3 mg/kg, route po; conditions: in vivo
# [12] = Oral bioavailability in Sprague-Dawley rat at 3 mg/kg measured up to 24 hrs; type: ADME, organism-based; conditions: in vivo
# [13] = Drug concentration in NSG mouse plasma at 30 mg/kg, po measured after 2 hrs; type: ADME, organism-based
# [14] = Clearance in cynomolgus monkey at 3 mg/kg, po or 1 mg/kg, iv measured up to 24 hrs; type: ADME, organism-based, Macaca fascicularis; conditions: in vivo
# [15] = target: Fibroblast growth factor receptor 3 (Mus musculus, UniProt Q61851); assay: Inhibition of FGFR3 phosphorylation in mouse BaF3 cells incubated for 2 hrs; type: cell-based
# Chain of Fibroblast growth factor receptor 3 (Q61851 whole entry): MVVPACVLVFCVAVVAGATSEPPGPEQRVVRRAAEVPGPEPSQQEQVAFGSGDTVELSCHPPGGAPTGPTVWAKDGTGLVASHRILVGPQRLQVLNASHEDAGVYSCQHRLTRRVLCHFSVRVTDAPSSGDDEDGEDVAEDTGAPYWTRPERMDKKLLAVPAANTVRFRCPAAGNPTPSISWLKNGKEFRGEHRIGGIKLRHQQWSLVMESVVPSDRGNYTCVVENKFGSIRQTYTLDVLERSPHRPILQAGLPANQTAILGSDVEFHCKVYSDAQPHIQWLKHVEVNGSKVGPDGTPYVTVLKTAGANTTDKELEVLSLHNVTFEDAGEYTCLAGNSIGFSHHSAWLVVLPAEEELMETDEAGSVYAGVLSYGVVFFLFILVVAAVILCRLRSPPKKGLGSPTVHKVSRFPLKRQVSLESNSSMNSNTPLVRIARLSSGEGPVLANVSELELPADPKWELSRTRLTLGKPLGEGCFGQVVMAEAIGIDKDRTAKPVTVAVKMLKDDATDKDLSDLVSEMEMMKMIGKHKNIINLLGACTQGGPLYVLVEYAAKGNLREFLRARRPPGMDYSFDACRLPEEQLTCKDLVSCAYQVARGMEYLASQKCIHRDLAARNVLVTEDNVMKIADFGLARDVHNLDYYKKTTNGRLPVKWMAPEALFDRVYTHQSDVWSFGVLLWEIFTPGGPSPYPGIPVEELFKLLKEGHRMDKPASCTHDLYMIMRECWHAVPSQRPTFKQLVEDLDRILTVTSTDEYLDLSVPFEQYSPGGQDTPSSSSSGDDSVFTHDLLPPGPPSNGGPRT
# [16] = Permeability in human Caco-2 cells incubated for 120 mins by LC-MS/MS analysis; type: ADME, cell-based; conditions: read-out: permeability
# [17] = Solubility of compound in stimulated gastric fluid; type: ADME; conditions: simulated gastric fluid
# [18] = Solubility of compound in fasted state stimulated intestinal fluid; type: ADME; conditions: fasted state simulated intestinal fluid
# [19] = Clearance in Sprague-Dawley rat at 3 mg/kg, po or 1 mg/kg, iv measured up to 24 hrs; type: ADME, organism-based; conditions: in vivo
# Cytochrome P450 2B6 = target: T4, Cytochrome P450 2B6 (Homo sapiens, UniProt P20813); assay: Inhibition of CYP2B6 (unknown origin); type: ADME
# T4 sequence (P20813 whole entry): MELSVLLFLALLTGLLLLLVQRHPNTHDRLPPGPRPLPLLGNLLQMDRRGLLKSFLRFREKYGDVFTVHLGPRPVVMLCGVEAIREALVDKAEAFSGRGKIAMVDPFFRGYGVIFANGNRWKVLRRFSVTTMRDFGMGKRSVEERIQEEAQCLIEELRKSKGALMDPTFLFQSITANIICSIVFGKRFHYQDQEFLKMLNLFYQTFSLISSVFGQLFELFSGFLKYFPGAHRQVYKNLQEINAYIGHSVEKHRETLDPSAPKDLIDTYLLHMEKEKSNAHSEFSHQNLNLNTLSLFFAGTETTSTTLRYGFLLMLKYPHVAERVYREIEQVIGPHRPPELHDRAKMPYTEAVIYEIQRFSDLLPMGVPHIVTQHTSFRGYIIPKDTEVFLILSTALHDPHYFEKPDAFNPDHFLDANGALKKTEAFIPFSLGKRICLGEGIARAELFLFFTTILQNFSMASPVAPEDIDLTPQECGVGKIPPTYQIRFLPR
# Cytochrome P450 2C9 = Cytochrome P450 2C9 (Homo sapiens, UniProt P11712); assay: Inhibition of CYP2C9 (unknown origin); type: ADME
# Chain of Cytochrome P450 2C9 (P11712 whole entry): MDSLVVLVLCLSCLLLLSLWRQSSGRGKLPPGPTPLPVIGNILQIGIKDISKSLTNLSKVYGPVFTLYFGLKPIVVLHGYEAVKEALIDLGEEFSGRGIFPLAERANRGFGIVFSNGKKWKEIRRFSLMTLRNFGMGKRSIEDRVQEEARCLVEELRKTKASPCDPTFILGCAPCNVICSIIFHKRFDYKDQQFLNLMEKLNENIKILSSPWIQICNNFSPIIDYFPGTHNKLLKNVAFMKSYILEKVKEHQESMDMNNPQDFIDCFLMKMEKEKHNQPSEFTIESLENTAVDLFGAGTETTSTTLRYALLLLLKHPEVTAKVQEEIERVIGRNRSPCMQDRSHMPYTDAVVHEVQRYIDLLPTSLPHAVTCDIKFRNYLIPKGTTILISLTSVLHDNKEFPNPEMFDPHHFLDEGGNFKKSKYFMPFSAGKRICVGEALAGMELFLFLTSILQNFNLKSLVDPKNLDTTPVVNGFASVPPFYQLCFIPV
# Cytochrome P450 3A4 = Cytochrome P450 3A4 (Homo sapiens, UniProt P08684); assay: Inhibition of CYP3A4 (unknown origin); type: ADME
# Chain of Cytochrome P450 3A4 (P08684 whole entry): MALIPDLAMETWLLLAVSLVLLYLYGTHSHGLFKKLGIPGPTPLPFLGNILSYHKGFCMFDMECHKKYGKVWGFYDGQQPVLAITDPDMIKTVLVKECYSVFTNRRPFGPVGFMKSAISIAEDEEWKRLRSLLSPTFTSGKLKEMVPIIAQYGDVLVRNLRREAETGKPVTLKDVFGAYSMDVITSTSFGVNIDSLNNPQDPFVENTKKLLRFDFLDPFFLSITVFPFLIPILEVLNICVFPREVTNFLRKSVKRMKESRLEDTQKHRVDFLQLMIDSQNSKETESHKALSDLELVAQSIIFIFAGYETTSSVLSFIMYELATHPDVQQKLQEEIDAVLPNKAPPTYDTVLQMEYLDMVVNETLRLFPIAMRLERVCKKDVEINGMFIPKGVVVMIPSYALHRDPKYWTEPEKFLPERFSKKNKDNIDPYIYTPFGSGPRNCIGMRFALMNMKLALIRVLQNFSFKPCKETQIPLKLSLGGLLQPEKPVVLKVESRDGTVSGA
# [20] = AUCinfinity in Sprague-Dawley rat at 3 mg/kg, po measured up to 24 hrs; type: ADME, organism-based; parameters: dose 3 mg/kg, time < 24 hrs, route po; conditions: in vivo
# [21] = Half life in cynomolgus monkey at 3 mg/kg, po or 1 mg/kg, iv measured up to 24 hrs; type: ADME, organism-based, Macaca fascicularis; conditions: in vivo
# [22] = target: T1, Fibroblast growth factor receptor 2; assay: Inhibition of FGFR2 in human KATOIII cells incubated for 1 hr; type: cell-based, KATO III stomach cancer cell line
# [23] = Cmax in Sprague-Dawley rat at 3 mg/kg, po measured up to 24 hrs; type: ADME, organism-based; parameters: dose 3 mg/kg, time < 24 hrs, route po; conditions: in vivo
# Chain of Cytochrome P450 2D6 (P10635 whole entry, the tested form may be a part): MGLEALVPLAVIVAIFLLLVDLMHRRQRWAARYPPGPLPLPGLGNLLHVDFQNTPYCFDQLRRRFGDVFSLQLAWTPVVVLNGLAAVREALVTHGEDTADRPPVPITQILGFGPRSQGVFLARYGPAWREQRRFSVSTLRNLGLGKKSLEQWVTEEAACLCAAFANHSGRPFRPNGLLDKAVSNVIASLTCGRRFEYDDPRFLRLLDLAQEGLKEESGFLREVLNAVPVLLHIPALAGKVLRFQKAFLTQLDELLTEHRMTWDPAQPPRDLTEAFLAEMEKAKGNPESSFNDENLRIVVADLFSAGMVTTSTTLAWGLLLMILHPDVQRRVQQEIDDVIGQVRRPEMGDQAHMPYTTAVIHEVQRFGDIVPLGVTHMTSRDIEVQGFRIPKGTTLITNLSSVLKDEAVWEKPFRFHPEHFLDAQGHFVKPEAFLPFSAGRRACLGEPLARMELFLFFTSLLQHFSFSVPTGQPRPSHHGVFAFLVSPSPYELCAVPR
compound,measurement,setting,value
CN1C[C@@H]2CC[C@H](C1=O)N2c1ncc2[nH]nc(-c3cnn(C4CCC4)c3)c2n1,pIC50,Cytochrome P450 2D6,< 5.00
same,pIC50,[1],8.74
same,pIC50,[2],6.80
same,bioavailability,[3],20%
same,half-life,[4],6.6 h
same,inhibition at 10 µM,hERG (KCNH2),< 10%
same,pIC50,Cytochrome P450 1A2,< 5.00
same,pIC50,[5],6.74
same,pIC50,Activin receptor type-1,6.32
same,Cmax,[6],825 nM
same,Vdss,[7],2.6 L/kg
same,Vdss,[8],0.66 L/kg
same,CLint scaled at 1 µM,[9],16.7 mL/min/kg
same,fraction unbound at 2 h,[10],0.11
same,AUC(0-inf),[11],2.21 µM·h
same,bioavailability,[12],100%
same,concentration at 2 h,[13],760 nM
same,CL,[14],12 mL/min/kg
same,pIC50,[15],7.80
same,Papp at 2 h,[16],4 ×10⁻⁶ cm/s
same,solubility,[17],> 400 µg/mL
same,solubility,[18],557 µg/mL
same,CL,[19],23.3 mL/min/kg
same,pIC50,Cytochrome P450 2B6,< 5.00
same,pIC50,Cytochrome P450 2C9,< 5.00
same,pIC50,Cytochrome P450 3A4,< 5.00
same,AUC(0-inf),[20],5.82 µM·h
same,half-life,[21],3.2 h
same,pIC50,[22],7.62
same,Cmax,[23],5550 nM
